How the values were obtained:
BRD9 bromodomain = BRD9 bromodomain (Homo sapiens (Human), UniProt Q9H8M2); assay: BRD9 bromodomain TR-FRET competition binding assay
Procedure: Procedure: His-Flag-BRD9 (P133-K239; Swiss Prot Q9H8M2; SEQ ID NO:1 mgsshhhhhhenlyfq/gdykddddkgslevlfqg/[…] […]) was cloned, expressed, purified, and then treated with TEV protease. Cleaved His tag was removed by purification. The binding of a biotinylated small molecule ligand of BRD9 was assessed via the LANCE® TR-FRET platform (PerkinElmer), and the compounds were assayed for inhibitory activity against this interaction.
Results: A mixture of biotinylated-ligand and SureLight™ Allophycocyanin-Streptavidin (APC-SA, PerkinElmer AD0201) in 50 mM HEPES (pH 7.4), 50 mM NaCl, 1 mM TCEP (pH 7), 0.01% (v/v) Tween-20, 0.01% (w/v) bovine serum albumin was added to a white 384-well PerkinElmer Proxiplate Plus plate. DMSO or 3-fold serially diluted compounds were then added to the Proxiplate followed by addition of Flag-BRD9. After a 10-minute incubation at room temperature, Eu—W1024 anti-FLAG (PerkinElmer, AD0273) was added. The final reaction mixture that contained 3.75 nM biotinylated ligand, 3 nM Flag-BRD9, 7.5 nM SureLight™ Allophycocyanin-Streptavidin, and 0.2 nM Eu—W1024 anti-FLAG was incubated at room temperature for 90 minutes.
The plates were then read on a PerkinElmer Envision plate reader to determine the ratio of emission at 665 nm over 615 nm. […]

[1] = biological target: Nanoluciferase-BRD9 fusion protein (3×FLAG-NLuc-BRD9) in SYO-1 cells (Homo sapiens (Human), UniProt Q9H8M2); assay: SYO1 BRD9 NanoLuc degradation assay; assay type: cell-based; details: SYO-1 cells, 6 hours, Table 6A
Sequence of Nanoluciferase-BRD9 fusion protein (3×FLAG-NLuc-BRD9) in SYO-1 cells (Q9H8M2 whole entry, the tested form may be a part): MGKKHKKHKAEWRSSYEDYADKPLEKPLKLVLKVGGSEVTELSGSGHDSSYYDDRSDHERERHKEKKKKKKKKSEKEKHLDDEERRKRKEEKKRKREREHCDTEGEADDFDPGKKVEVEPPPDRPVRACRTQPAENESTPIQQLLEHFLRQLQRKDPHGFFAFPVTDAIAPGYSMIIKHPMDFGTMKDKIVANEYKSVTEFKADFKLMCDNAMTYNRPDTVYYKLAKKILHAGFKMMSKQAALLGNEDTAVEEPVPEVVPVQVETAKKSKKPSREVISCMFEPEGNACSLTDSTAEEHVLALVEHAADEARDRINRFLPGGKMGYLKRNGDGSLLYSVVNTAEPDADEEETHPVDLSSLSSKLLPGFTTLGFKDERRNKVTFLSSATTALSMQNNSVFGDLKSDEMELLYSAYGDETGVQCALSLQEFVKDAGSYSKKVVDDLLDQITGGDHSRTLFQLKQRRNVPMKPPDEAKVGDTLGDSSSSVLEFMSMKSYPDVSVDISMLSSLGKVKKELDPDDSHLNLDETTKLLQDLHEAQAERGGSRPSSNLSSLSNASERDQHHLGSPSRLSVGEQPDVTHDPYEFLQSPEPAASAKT
Procedure, shortened: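 Stable SYO-1 line expressing 3×FLAG-NLuc-BRD9, treated with 10-point 3-fold dilutions (top 1 μM final) for 6 hours. Nanoluciferase luminescence read with Nano-Glo reagent. % inhibition relative to DMSO (high control) and 1 μM reference BRD9 degrader (low control).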

Sequence of BRD9 bromodomain (Q9H8M2 133-239): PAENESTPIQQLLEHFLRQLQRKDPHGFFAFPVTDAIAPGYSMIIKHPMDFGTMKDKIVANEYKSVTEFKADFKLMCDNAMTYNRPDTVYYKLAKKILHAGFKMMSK

| Structure (SMILES) | IC50 (BRD9 bromodomain) [nM] | IC50 [1] [nM] |
| --- | --- | --- |
| COc1cc(-c2cn(C)c(=O)c3c2CCN(CCO)C3)cc(OC)c1CN(C)C [Compound B10, 4-[4-[(dimethylamino)methyl]-3,5-dimethoxyphenyl]-7-(2-hydroxyethyl)-2-methyl-1,2,5,6,7,8-hexahydro-2,7-naphthyridin-1-one] | > 1000 |  |
| CCOC(=O)N1CCc2c(-c3cc(OC)c(CN(C)C)c(OC)c3)cn(C)c(=O)c2C1 [Compound B11, ethyl 5-[4-[(dimethylamino)methyl]-3,5-dimethoxyphenyl]-7-methyl-8-oxo-1,2,3,4,7,8-hexahydro-2,7-naphthyridine-2-carboxylate] | > 1000 |  |
| CCC(=O)N1CCc2c(-c3cc(OC)c(CN(C)C)c(OC)c3)cn(C)c(=O)c2C1 [Compound B12] | > 1000 |  |
| COc1cc(-c2cn(C)c(=O)c3c2CCN(C(N)=O)C3)cc(OC)c1CN(C)C [Compound B13, 5-[4-[(dimethylamino)methyl]-3,5-dimethoxyphenyl]-7-methyl-8-oxo-1,2,3,4,7,8-hexahydro-2,7-naphthyridine-2-carboxamide] | > 10 |  |
| COc1cc(-c2cn(C)c(=O)c3c2CCN(C(C)=O)C3)cc(OC)c1CN(C)C [Compound B14, 7-acetyl-4-[4-[(dimethylamino)methyl]-3,5-dimethoxyphenyl]-2-methyl-1,2,5,6,7,8-hexahydro-2,7-naphthyridin-1-one] | > 1000 |  |
| CCN1CCc2c(-c3cc(OC)c(CN(C)C)c(OC)c3)cn(C)c(=O)c2C1 [Compound B15, 4-[4-[(dimethylamino)methyl]-3,5-dimethoxyphenyl]-7-ethyl-2-methyl-1,2,5,6,7,8-hexahydro-2,7-naphthyridin-1-one formic acid] | > 1000 |  |
| COc1cc(-c2cn(C)c(=O)c3c2CCN(C)C3)cc(OC)c1CN(C)C [Compound B16, 4-[4-[(dimethylamino)methyl]-3,5-dimethoxyphenyl]-2,7-dimethyl-1,2,5,6,7,8-hexahydro-2,7-naphthyridin-1-one formic acid] | > 1000 |  |
| COc1cc(-c2cn(C)c(=O)c3c2CCNC3)cc(OC)c1CN(C)C [Compound B17, 4-[4-[(dimethylamino)methyl]-3,5-dimethoxyphenyl]-2-methyl-1,2,5,6,7,8-hexahydro-2,7-naphthyridin-1-one] | > 1000 |  |
| CNC(=O)N1CCc2c(c(-c3cc(OC)c(CN(C)C)c(OC)c3)cn(C)c2=O)C1 [Compound B18, 8-[4-[(dimethylamino)methyl]-3,5-dimethoxyphenyl]-N,6-dimethyl-5-oxo-3,4-dihydro-1H-2,6-naphthyridine-2-carboxamide] | > 10 |  |
| CCCCNS(=O)(=O)N1CCc2c(-c3cc(OC)c(CN(C)C)c(OC)c3)cn(C)c(=O)c2C1 [Compound B19, N-butyl-5-{4-[(dimethylamino)methyl]-3,5-dimethoxyphenyl}-7-methyl-8-oxo-1,2,3,4,7,8-hexahydro-2,7-naphthyridine-2-sulfonamide] | > 10 |  |
| CCCCNC(=S)N1CCc2c(-c3cc(OC)c(CN(C)C)c(OC)c3)cn(C)c(=O)c2C1 [Compound B20, N-butyl-5-(4-((dimethylamino)methyl)-3,5-dimethoxyphenyl)-7-methyl-8-oxo-3,4,7,8-tetrahydro-2,7-naphthyridine-2 (1H)-carbothioamide] | > 10 |  |
| COc1cc(-c2cn(C)c(=O)c3c2CN(C(=O)N(C)C)CC3)cc(OC)c1CN(C)C [Compound B21, 8-[4-[(dimethylamino)methyl]-3,5-dimethoxyphenyl]-N,N,6-trimethyl-5-oxo-3,4-dihydro-1H-2,6-naphthyridine-2-carboxamide] | > 100 |  |

Results, then the compound that gave them:

| IC50 (BRD9 bromodomain) [nM] | IC50 [1] [nM] | Structure (SMILES) |
| --- | --- | --- |
| > 10 | > 100 | COc1cc(-c2cn(C)c(=O)c3c2CCN(C(=O)NCCOCCNc2cccc4c2C(=O)N(C2CCC(=O)NC2=O)C4=O)C3)c(OC)cc1CN(C)C (stereo not shown) [Compound D14, 5-[4-[(dimethylamino)methyl]-2,5-dimethoxyphenyl]-N-[2-(2-[[2-(2,6-dioxopiperidin-3-yl)-1,3-dioxoisoindol-4-yl]amino]ethoxy)ethyl]-7-methyl-8-oxo-3,4-dihydro-1H-2,7-naphthyridine-2-carboxamide formic acid] |
| > 10 | > 100 | CNC(=O)N1CCc2c(-c3cc(OC)c(CN4CC(NC(=O)CCCCCOc5cccc6c5C(=O)N(C5CCC(=O)NC5=O)C6=O)C4)cc3OC)cn(C)c(=O)c2C1 (stereo not shown) [Compound D15, 5-(4-[[3-(6-[[2-(2,6-Dioxopiperidin-3-yl)-1,3-dioxoisoindol-4-yl]oxy]hexanamido)azetidin-1-yl]methyl]-2,5-dimethoxyphenyl)-N,7-dimethyl-8-oxo-3,4-dihydro-1H-2,7-naphthyridine-2-carboxamide formic acid] |
| > 10 | > 10 | COc1cc(-c2cn(C)c(=O)c3c2CCN(C(=O)NCCOCCNc2cccc4c2C(=O)N(C2CCC(=O)NC2=O)C4=O)C3)cc(OC)c1CN(C)C (stereo not shown) [Compound D17, 5-[4-[(dimethylamino)methyl]-3,5-dimethoxyphenyl]-N-[2-(2-[[2-(2,6-dioxopiperidin-3-yl)-1,3-dioxoisoindol-4-yl]amino]ethoxy)ethyl]-7-methyl-8-oxo-3,4-dihydro-1H-2,7-naphthyridine-2-carboxamide formic acid] |
| > 10 | > 10 | COc1cc(-c2cn(C)c(=O)c3c2CCN(C(=O)NCCCCCOc2cccc4c2C(=O)N(C2CCC(=O)NC2=O)C4=O)C3)cc(OC)c1CN(C)C (stereo not shown) [Compound D18, 5-[4-[(dimethylamino)methyl]-3,5-dimethoxyphenyl]-N-(5-[[2-(2,6-dioxopiperidin-3-yl)-1,3-dioxoisoindol-4-yl]oxy]pentyl)-7-methyl-8-oxo-3,4-dihydro-1H-2,7-naphthyridine-2-carboxamide] |
| < 10 |  | COc1cc(-c2cn(C)c(=O)c3c2CCN(C(=O)NC2CCN(CCOc4ccc5c(c4)C(=O)N(C4CCC(=O)NC4=O)C5=O)CC2)C3)cc(OC)c1CN(C)C (stereo not shown) [Compound D26, 5-[4-[(dimethylamino)methyl]-3,5-dimethoxyphenyl]-N-[1-(2-[[2-(2,6-dioxopiperidin-3-yl)-1,3-dioxoisoindol-5-yl]oxy]ethyl)piperidin-4-yl]-7-methyl-8-oxo-3,4-dihydro-1H-2,7-naphthyridine-2-carboxamide formic acid] |
| > 100 |  | COc1cc(-c2cn(C)c(=O)c3c2CN(C(=O)NCCOCCNc2cccc4c2C(=O)N(C2CCC(=O)NC2=O)C4=O)CC3)cc(OC)c1CN(C)C (stereo not shown) [Compound D27, 8-[4-[(dimethylamino)methyl]-3,5-dimethoxyphenyl]-N-[2-(2-[[2-(2,6-dioxopiperidin-3-yl)-1,3-dioxoisoindol-4-yl]amino]ethoxy)ethyl]-6-methyl-5-oxo-3,4-dihydro-1H-2,6-naphthyridine-2-carboxamide formic acid] |
| > 10 |  | COc1cc(-c2cn(C)c(=O)c3c2CCN(C(=O)NCCOCCOCC(=O)N[C@H](C(=O)N2C[C@H](O)C[C@H]2C(=O)NCc2ccc(-c4scnc4C)cc2)C(C)(C)C)C3)cc(OC)c1CN(C)C [Compound D34, (2S,4R)-1-[(2S)-2-(2-[2-[2-(5-[4-[(dimethylamino)methyl]-3,5-dimethoxyphenyl]-7-methyl-8-oxo-3,4-dihydro-1H-2,7-naphthyridine-2-carbonylamino)ethoxy]ethoxy]acetamido)-3,3-dimethylbutanoyl]-4-hydroxy-N-[[4-(4-methyl-1,3-thiazol-5-yl)phenyl]methyl]pyrrolidine-2-carboxamide formic acid] |
| > 10 |  | COc1cc(-c2cn(C)c(=O)c3c2CCN(C(=O)NCCOCCOCCOCC(=O)N[C@@H](C(=O)N2C[C@@H](O)C[C@@H]2C(=O)NCc2ccc(-c4scnc4C)cc2)C(C)(C)C)C3)cc(OC)c1CN(C)C [Compound D35, (2R,4S)-1-[(2R)-2-[2-(2-[2-[2-(5-[4-[(dimethylamino)methyl]-3,5-dimethoxyphenyl]-7-methyl-8-oxo-3,4-dihydro-1H-2,7-naphthyridine-2-carbonylamino)ethoxy]ethoxy]ethoxy)acetamido]-3,3-dimethylbutanoyl]-4-hydroxy-N-[[4-(4-methyl-1,3-thiazol-5-yl)phenyl]methyl]pyrrolidine-2-carboxamide] |
| > 10 |  | COc1cc(-c2cn(C)c(=O)c3c2CCN(C(=O)NCCCCCC(=O)N[C@H](C(=O)N2C[C@H](O)C[C@H]2C(=O)NCc2ccc(-c4scnc4C)cc2)C(C)(C)C)C3)cc(OC)c1CN(C)C [Compound D36, (2S,4R)-1-[(2S)-2-[6-(5-[4-[(dimethylamino)methyl]-3,5-dimethoxyphenyl]-7-methyl-8-oxo-3,4-dihydro-1H-2,7-naphthyridine-2-carbonylamino)hexanamido]-3,3-dimethylbutanoyl]-4-hydroxy-N-[[4-(4-methyl-1,3-thiazol-5-yl)phenyl]methyl]pyrrolidine-2-carboxamide] |

— patent US12384776B2, “Compounds and uses thereof” (Foghorn Therapeutics Inc., priority 2019, dated 2025)
